According to patent publication US20080274892A1, “Novel Haloalkylsulfonanilide Derivative, Herbicide, and Method of Use Thereof” (priority 2005, published 2008):

What was measured:
false pimpernel [1] = experiment: Test Example 2: herbicidal efficacy on rice paddy weeds post-emergence; format: in vivo, Lindernia pyxidaria; conditions: post-emergence, one leaf stage, 21 days after treatment
barnyard glass = experiment: as above; format: in vivo, Echinochloa crus-galli; conditions: post-emergence, one leaf stage, 21 days after treatment
Procedure, shortened: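 Efficacy on paddy weeds was scored on a 0 to 4 growth-inhibition scale: 4 for 90%-100%, 3 for 70%-89%, 2 for 40%-69%, 1 for 1%-39% and 0 for 0%. Barnyard glass was grown in clay loam in 75 cm^2 pots under 5 cm of water in a hot house. It was compared with untreated pots 21 days after treatment.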

bulrush [2] = experiment: as above; format: in vivo, Scirpus juncoides; conditions: post-emergence, one leaf stage, 21 days after treatment
false pimpernel [3] = experiment: Test Example 1: herbicidal efficacy on rice paddy weeds pre-emergence; format: in vivo, Lindernia pyxidaria; conditions: 21 days
bulrush [4] = experiment: Test Example 4: low dosage test for rice paddy weeds; format: in vivo, Scirpus juncoides; conditions: 300 g/ha as an active ingredient; plants treated at the one leaf stage; 21 days after treatment; vs untreated control
Procedure, shortened: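 Compound applied as a formulation at 300 g/ha to one-leaf bulrush grown in flooded clay loam (5 cm water) in a hot house. After 21 days, growth inhibition versus untreated plants rated on a 0–4 scale, with 4 meaning 90–100%.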

[5] = system: transplanted paddy rice plant and Bulrush; experiment: Test Example 5: selectivity between transplanted paddy rice plant and weeds; format: in vivo; conditions: (highest dosage with no phytotoxicity to paddy rice)/(lowest dosage with effective level 4 on Bulrush); rice 3000-100 g/ha, Bulrush 300-10 g/ha; 21 days
Procedure, shortened: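 Scoring ran 21 days after treatment in a hothouse on a 0–4 scale (4 = 90–100%, 3 = 70–89%, 2 = 40–69%, 1 = 1–39%, 0 = none) relative to untreated plants. Post-emergence bulrush received 10, 30, 100 and 300 g/ha active ingredient. Transplanted rice received 100, 300, 1000 and 3000 g/ha to assess crop injury.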

bulrush [6] = experiment: Test Example 1: herbicidal efficacy on rice paddy weeds pre-emergence; format: in vivo, Scirpus juncoides; conditions: 21 days
[7] = system: paddy rice plant (cultivar: Nihonbare); experiment: Test Example 3: phytotoxicity test for transplanted paddy rice plant; format: in vivo; conditions: transplanted rice, 21 days after treatment
Procedure, shortened: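 Clay loam soil was placed in a 75 cm^2 plastic pot and flooded to a water depth of 5 cm. Two Nihonbare paddy rice plants at the two-leaf stage were transplanted 1 cm deep and grown in a hot house. After treatment, pots stayed in the hot house for 21 days, and phytotoxicity was then graded against an untreated control.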

[8] = dosage 1000 g/ha, treated 5 days after transplantation

Row | SMILES | False pimpernel post (herbicidal efficacy grade) (false pimpernel [1]; dosage 1000 g/ha) | Burnyard grass post (herbicidal efficacy grade) (barnyard glass; dosage 1000 g/ha) | Bulrush post (herbicidal efficacy grade) (bulrush [2]; dosage 1000 g/ha) | False pimpernel pre (herbicidal efficacy grade) (false pimpernel [3]; dosage 1000 g/ha) | Herbicide effect to Bulrush (bulrush [4]) | Selective Index [5] | Bulrush pre (herbicidal efficacy grade) (bulrush [6]; dosage 1000 g/ha) | Phytotoxicity to paddy rice [7, 8] | False pimpernel post (herbicidal efficacy grade) (false pimpernel [1]; dosage 100 g/ha) | Burnyard grass post (herbicidal efficacy grade) (barnyard glass; dosage 100 g/ha) | Bulrush post (herbicidal efficacy grade) (bulrush [2]; dosage 100 g/ha) | False pimpernel pre (herbicidal efficacy grade) (false pimpernel [3]; dosage 100 g/ha) | Bulrush pre (herbicidal efficacy grade) (bulrush [6]; dosage 100 g/ha) | Phytotoxicity to paddy rice ([7]; dosage 100 g/ha as printed in the table line) | False pimpernel post (herbicidal efficacy grade) (false pimpernel [1]; dosage 300 g/ha) | Burnyard grass post (herbicidal efficacy grade) (barnyard glass; dosage 300 g/ha) | Bulrush post (herbicidal efficacy grade) (bulrush [2]; dosage 300 g/ha) | False pimpernel pre (herbicidal efficacy grade) (false pimpernel [3]; dosage 300 g/ha) | Bulrush pre (herbicidal efficacy grade) (bulrush [6]; dosage 300 g/ha) | Phytotoxicity to paddy rice ([7]; dosage 300 g/ha)
1 | CC(C)COC(=O)N(c1ccccc1CN1C(=O)OC(C)(C)C1=O)S(=O)(=O)C(F)(F)F [Compound No. 1-189, 3-{2-[N-(isobutoxycarbonyl)-N-(trifluoromethanesulfonyl)amino]benzyl}-5,5-dimethyloxazolidine-2,4-dione] | 4 (90%-100% of herbicidal efficacy or phytotoxicity) | 4 (90%-100% of herbicidal efficacy or phytotoxicity) | 4 (90%-100% of herbicidal efficacy or phytotoxicity) | 4 (90%-100% of herbicidal efficacy or phytotoxicity) | 4 (90%-100% of herbicidal efficacy or phytotoxicity) | ≧10 | 4 (90%-100% of herbicidal efficacy or phytotoxicity) | 1 (1%-39% of herbicidal efficacy or phytotoxicity) | – | – | – | – | – | – | – | – | – | – | – | –
2 | CCCCC(CC)COC(=O)N(c1ccccc1CN1CC(C)(C)OC1=O)S(=O)(=O)C(F)(F)F (stereo not shown) [1-68] | 4 (90%-100% of herbicidal efficacy or phytotoxicity) | 4 (90%-100% of herbicidal efficacy or phytotoxicity) | 4 (90%-100% of herbicidal efficacy or phytotoxicity) | 4 (90%-100% of herbicidal efficacy or phytotoxicity) | 4 (90%-100% of herbicidal efficacy or phytotoxicity) | 10 | 4 (90%-100% of herbicidal efficacy or phytotoxicity) | 1 (1%-39% of herbicidal efficacy or phytotoxicity) | – | – | – | – | – | – | – | – | – | – | – | –
3 | COCCOC(=O)N(c1ccccc1CN1CC(C)(C)OC1=O)S(=O)(=O)C(F)(F)F [1-81] | 4 (90%-100% of herbicidal efficacy or phytotoxicity) | 4 (90%-100% of herbicidal efficacy or phytotoxicity) | 4 (90%-100% of herbicidal efficacy or phytotoxicity) | 4 (90%-100% of herbicidal efficacy or phytotoxicity) | 4 (90%-100% of herbicidal efficacy or phytotoxicity) | 30 | 4 (90%-100% of herbicidal efficacy or phytotoxicity) | 2 (40%-69% of herbicidal efficacy or phytotoxicity) | – | – | – | – | – | – | – | – | – | – | – | –
4 | CCC1(CC)CN(Cc2ccccc2N(C(=O)OC)S(=O)(=O)C(F)(F)F)C(=S)O1 [1-183] | 4 (90%-100% of herbicidal efficacy or phytotoxicity) | 4 (90%-100% of herbicidal efficacy or phytotoxicity) | 4 (90%-100% of herbicidal efficacy or phytotoxicity) | 4 (90%-100% of herbicidal efficacy or phytotoxicity) | 4 (90%-100% of herbicidal efficacy or phytotoxicity) | 10 | 4 (90%-100% of herbicidal efficacy or phytotoxicity) | 1 (1%-39% of herbicidal efficacy or phytotoxicity) | – | – | – | – | – | – | – | – | – | – | – | –
5 | CC1(C)CN(Cc2ccccc2NS(=O)(=O)C(F)(F)F)C(=S)O1 [1-49] | 4 (90%-100% of herbicidal efficacy or phytotoxicity) | 4 (90%-100% of herbicidal efficacy or phytotoxicity) | 4 (90%-100% of herbicidal efficacy or phytotoxicity) | 4 (90%-100% of herbicidal efficacy or phytotoxicity) | 4 (90%-100% of herbicidal efficacy or phytotoxicity) | 10 | 4 (90%-100% of herbicidal efficacy or phytotoxicity) | 2 (40%-69% of herbicidal efficacy or phytotoxicity) | – | – | – | – | – | – | – | – | – | – | – | –
6 | COC(=O)N(c1ccccc1CN1CC(C)(C2(C)CC2)OC1=O)S(=O)(=O)C(F)(F)F (stereo not shown) [1-169] | 4 (90%-100% of herbicidal efficacy or phytotoxicity) | 4 (90%-100% of herbicidal efficacy or phytotoxicity) | 4 (90%-100% of herbicidal efficacy or phytotoxicity) | 4 (90%-100% of herbicidal efficacy or phytotoxicity) | 4 (90%-100% of herbicidal efficacy or phytotoxicity) | 10 | 4 (90%-100% of herbicidal efficacy or phytotoxicity) | 1 (1%-39% of herbicidal efficacy or phytotoxicity) | – | – | – | – | – | – | – | – | – | – | – | –
7 | CCCCC1(C)CN(Cc2ccccc2N(C(=O)OCC)S(=O)(=O)C(F)(F)F)C(=O)O1 (stereo not shown) [1-129] | – | – | – | – | 4 (90%-100% of herbicidal efficacy or phytotoxicity) | 10 | – | – | 3 (70%-89% of herbicidal efficacy or phytotoxicity) | 3 (70%-89% of herbicidal efficacy or phytotoxicity) | 4 (90%-100% of herbicidal efficacy or phytotoxicity) | 4 (90%-100% of herbicidal efficacy or phytotoxicity) | 2 (40%-69% of herbicidal efficacy or phytotoxicity) | 1 (1%-39% of herbicidal efficacy or phytotoxicity) | – | – | – | – | – | –
8 | CCOC(=O)N(c1ccccc1CN1CC(C)(C2CC2)OC1=O)S(=O)(=O)C(F)(F)F (racemic) [1-111] | 4 (90%-100% of herbicidal efficacy or phytotoxicity) | 4 (90%-100% of herbicidal efficacy or phytotoxicity) | 4 (90%-100% of herbicidal efficacy or phytotoxicity) | 4 (90%-100% of herbicidal efficacy or phytotoxicity) | 4 (90%-100% of herbicidal efficacy or phytotoxicity) | ≧30 | 4 (90%-100% of herbicidal efficacy or phytotoxicity) | 2 (40%-69% of herbicidal efficacy or phytotoxicity) | – | – | – | – | – | – | – | – | – | – | – | –
9 | CCCC1(C)CN(Cc2ccccc2NS(=O)(=O)C(F)(F)F)C(=O)O1 (racemic) [1-120] | – | – | – | – | 4 (90%-100% of herbicidal efficacy or phytotoxicity) | 10 | – | – | – | – | – | – | – | – | 4 (90%-100% of herbicidal efficacy or phytotoxicity) | 3 (70%-89% of herbicidal efficacy or phytotoxicity) | 4 (90%-100% of herbicidal efficacy or phytotoxicity) | 4 (90%-100% of herbicidal efficacy or phytotoxicity) | 4 (90%-100% of herbicidal efficacy or phytotoxicity) | 2 (40%-69% of herbicidal efficacy or phytotoxicity)
10 | CCCCCOC(=O)N(c1ccccc1CN1CC(C)(CC)OC1=O)S(=O)(=O)C(F)(F)F (stereo not shown) [1-91] | 4 (90%-100% of herbicidal efficacy or phytotoxicity) | 4 (90%-100% of herbicidal efficacy or phytotoxicity) | 4 (90%-100% of herbicidal efficacy or phytotoxicity) | 4 (90%-100% of herbicidal efficacy or phytotoxicity) | 4 (90%-100% of herbicidal efficacy or phytotoxicity) | 30 | 4 (90%-100% of herbicidal efficacy or phytotoxicity) | 3 (70%-89% of herbicidal efficacy or phytotoxicity) | – | – | – | – | – | – | – | – | – | – | – | –
11 | CCC1CN(Cc2ccccc2N(C(=O)CC(C)C)S(=O)(=O)C(F)(F)F)C(=O)O1 (racemic) [1-53] | 4 (90%-100% of herbicidal efficacy or phytotoxicity) | 4 (90%-100% of herbicidal efficacy or phytotoxicity) | 4 (90%-100% of herbicidal efficacy or phytotoxicity) | 4 (90%-100% of herbicidal efficacy or phytotoxicity) | 3 (70%-89% of herbicidal efficacy or phytotoxicity) | 10 | 4 (90%-100% of herbicidal efficacy or phytotoxicity) | 0 (0% of herbicidal efficacy or phytotoxicity) | – | – | – | – | – | – | – | – | – | – | – | –
